system: human mixed lymphocyte reaction (MLR); assay: human mixed lymphocyte reaction (MLR), serum free variation; assay type: cell-based; conditions: Homo sapiens, Lymphocyte, serum-free medium AIM V, Table 3
Procedure: In vitro Assay of Biological Activity (Serum Free MLR)
The in viitro immunosuppressant activity of the compounds of the present invention can also be determined using a variation of the human mixed lymphocyte reaction (MLR) assay described by Kino, T. et al. in Transplantation Proceedings, XIX(5):36-39, Suppl. 6 (1987). In this assay, the cell culture was performed in a serum-free medium, AIM V (GibcoBRL Life Technologies, Grand Island, N.Y.), instead of the usual RPMI 1640 plus 10% heat-inactivated fetal bovine serum medium. The final cell concentrations of the responder and stimulator peripheral blood mononuclear cells were, respectively, 5×10^5/mL and 2×10^6/mL of cells pooled from four donors.

Row | SMILES | IC50 [nM]
1 | CC[C@@H]1/C=C(\C)C[C@H](C)C[C@H](OC)[C@H]2O[C@@](O)(C(=O)C(=O)N3CCCC[C@H]3C(=O)O[C@H](/C(C)=C/[C@@H]3CC[C@H]([S+]([O-])CC(=O)OCc4ccccc4)[C@H](OC)C3)[C@H](C)[C@@H](O)CC1=O)[C@H](C)C[C@@H]2OC (some centres unmarked) [Example 55] | 8.1
2 | CC[C@@H]1/C=C(\C)C[C@H](C)C[C@H](OC)[C@H]2O[C@@](O)(C(=O)C(=O)N3CCCC[C@H]3C(=O)O[C@H](/C(C)=C/[C@@H]3CC[C@H]([S+]([O-])CCC(=O)N(O)C(C)C)[C@H](OC)C3)[C@H](C)[C@@H](O)CC1=O)[C@H](C)C[C@@H]2OC (some centres unmarked) [Example 72] | 32.2
3 | CCC1C=C(C)CC(C)CC(OC)C2OC(O)(C(=O)C(=O)N3CCCCC3C(=O)OC(C(C)=CC3CCC(S)C(OC)C3)C(C)C(O)CC1=O)C(C)CC2OC (stereo not drawn) [Example 8A, 32-epi-Thiol Ascomycin] | 0.75
4 | CC[C@@H]1/C=C(\C)C[C@H](C)C[C@H](OC)[C@H]2O[C@@](O)(C(=O)C(=O)N3CCCC[C@H]3C(=O)O[C@H](/C(C)=C/[C@@H]3CC[C@H]([S+]([O-])CCC(=O)OC(C)C)[C@H](OC)C3)[C@H](C)[C@@H](O)CC1=O)[C@H](C)C[C@@H]2OC (single isomer, unassigned) [Example 65] | 32
5 | CC[C@@H]1/C=C(\C)C[C@H](C)C[C@H](OC)[C@H]2O[C@@](O)(C(=O)C(=O)N3CCCC[C@H]3C(=O)O[C@H](/C(C)=C/[C@@H]3CC[C@H](SC(=O)[C@@H](C)O)[C@H](OC)C3)[C@H](C)[C@@H](O)CC1=O)[C@H](C)C[C@@H]2OC [Example 124] | 2
6 | CC[C@@H]1/C=C(\C)C[C@H](C)C[C@H](OC)[C@H]2O[C@@](O)(C(=O)C(=O)N3CCCC[C@H]3C(=O)O[C@H](/C(C)=C/[C@@H]3CC[C@H]([S+]([O-])CC(=O)O)[C@H](OC)C3)[C@H](C)[C@@H](O)CC1=O)[C@H](C)C[C@@H]2OC (some centres unmarked) [Example 74] | 57.7
7 | CC[C@@H]1/C=C(\C)C[C@H](C)C[C@H](OC)[C@H]2O[C@@](O)(C(=O)C(=O)N3CCCC[C@H]3C(=O)O[C@H](/C(C)=C/[C@@H]3CC[C@H](SC(=O)c4ccccn4)[C@H](OC)C3)[C@H](C)[C@@H](O)CC1=O)[C@H](C)C[C@@H]2OC [Example 120] | 1.2
8 | CC[C@@H]1/C=C(\C)C[C@H](C)C[C@H](OC)[C@H]2O[C@@](O)(C(=O)C(=O)N3CCCC[C@H]3C(=O)O[C@H](/C(C)=C/[C@@H]3CC[C@H](SC(=O)[C@H](C)O)[C@H](OC)C3)[C@H](C)[C@@H](O)CC1=O)[C@H](C)C[C@@H]2OC [Example 123] | 2.8
9 | CCC1C=C(C)CC(C)CC(OC)C2OC(O)(C(=O)C(=O)N3CCCCC3C(=O)OC(C(C)=CC3CCC(SCC(=O)OCCN(C)C)C(OC)C3)C(C)C(O)CC1=O)C(C)CC2OC (centres unmarked) [Example 36] | 24.2
10 | CCC(CC)OC(=O)CCSC1CCC(C=C(C)C2OC(=O)C3CCCCN3C(=O)C(=O)C3(O)OC(C(OC)CC(C)CC(C)=CC(CC)C(=O)CC(O)C2C)C(OC)CC3C)CC1OC (centres unmarked) [Example 21] | 5.4
11 | CCC1C=C(C)CC(C)CC(OC)C2OC(O)(C(=O)C(=O)N3CCCCC3C(=O)OC(C(C)=CC3CCC(SCCC(=O)OCCN(C)C)C(OC)C3)C(C)C(O)CC1=O)C(C)CC2OC (centres unmarked) [Example 16] | 2.2
12 | CCOC(CNC(=O)S[C@H]1CC[C@@H](/C=C(\C)[C@H]2OC(=O)[C@@H]3CCCCN3C(=O)C(=O)[C@]3(O)O[C@H]([C@@H](OC)C[C@@H](C)C/C(C)=C/[C@@H](CC)C(=O)C[C@H](O)[C@H]2C)[C@@H](OC)C[C@H]3C)C[C@H]1OC)OCC [Example 104] | 2.5
13 | CCOC(=O)CS(=O)(=O)[C@H]1CC[C@@H](/C=C(\C)[C@H]2OC(=O)[C@@H]3CCCCN3C(=O)C(=O)[C@]3(O)O[C@H]([C@@H](OC)C[C@@H](C)C/C(C)=C/[C@@H](CC)C(=O)C[C@H](O)[C@H]2C)[C@@H](OC)C[C@H]3C)C[C@H]1OC [Example 59] | 7.5
14 | CCC1C=C(C)CC(C)CC(OC)C2OC(O)(C(=O)C(=O)N3CCCCC3C(=O)OC(C(C)=CC3CCC(SCCC(=O)N(C)O)C(OC)C3)C(C)C(O)CC1=O)C(C)CC2OC (centres unmarked) [Example 25] | 0.2
15 | CCC1C=C(C)CC(C)CC(OC)C2OC(O)(C(=O)C(=O)N3CCCCC3C(=O)OC(C(C)=CC3CCC(SCCC(=O)OCCCS(=O)(=O)O)C(OC)C3)C(C)C(O)CC1=O)C(C)CC2OC (centres unmarked) [Example 17] | 31.2
16 | C=CCS[C@H]1CC[C@@H](/C=C(\C)[C@H]2OC(=O)[C@@H]3CCCCN3C(=O)C(=O)[C@]3(O)O[C@H]([C@@H](OC)C[C@@H](C)C/C(C)=C/[C@@H](CC)C(=O)C[C@H](O)[C@H]2C)[C@@H](OC)C[C@H]3C)C[C@H]1OC [Example 79] | 14
17 | CC[C@@H]1/C=C(\C)C[C@H](C)C[C@H](OC)[C@H]2O[C@@](O)(C(=O)C(=O)N3CCCC[C@H]3C(=O)O[C@H](/C(C)=C/[C@@H]3CC[C@H]([S+]([O-])CCC(=O)OCc4ccccc4)[C@H](OC)C3)[C@H](C)[C@@H](O)CC1=O)[C@H](C)C[C@@H]2OC (single isomer, unassigned) [Example 62] | 29.2
18 | CCC1C=C(C)CC(C)CC(OC)C2OC(O)(C(=O)C(=O)N3CCCCC3C(=O)OC(C(C)=CC3CCC(SCC(C)C(=O)OCc4ccccc4)C(OC)C3)C(C)C(O)CC1=O)C(C)CC2OC (centres unmarked) [Example 42] | 63.4
19 | CCCNC(=O)S[C@H]1CC[C@@H](/C=C(\C)[C@H]2OC(=O)[C@@H]3CCCCN3C(=O)C(=O)[C@]3(O)O[C@H]([C@@H](OC)C[C@@H](C)C/C(C)=C/[C@@H](CC)C(=O)C[C@H](O)[C@H]2C)[C@@H](OC)C[C@H]3C)C[C@H]1OC [Example 92] | 0.26
20 | CC[C@@H]1/C=C(\C)C[C@H](C)C[C@H](OC)[C@H]2O[C@@](O)(C(=O)C(=O)N3CCCC[C@H]3C(=O)O[C@H](/C(C)=C/[C@@H]3CC[C@H](S(=O)(=O)CCC(=O)OCc4ccccc4)[C@H](OC)C3)[C@H](C)[C@@H](O)CC1=O)[C@H](C)C[C@@H]2OC [Example 64] | 9.2
21 | CC[C@@H]1/C=C(\C)C[C@H](C)C[C@H](OC)[C@H]2O[C@@](O)(C(=O)C(=O)N3CCCC[C@H]3C(=O)O[C@H](/C(C)=C/[C@@H]3CC[C@H](SC(=O)CCNC(C)=O)[C@H](OC)C3)[C@H](C)[C@@H](O)CC1=O)[C@H](C)C[C@@H]2OC [Example 116] | 3.1
22 | CC[C@@H]1/C=C(\C)C[C@H](C)C[C@H](OC)[C@H]2O[C@@](O)(C(=O)C(=O)N3CCCC[C@H]3C(=O)O[C@H](/C(C)=C/[C@@H]3CC[C@H]([S+]([O-])CCC(=O)OCc4ccccc4)[C@H](OC)C3)[C@H](C)[C@@H](O)CC1=O)[C@H](C)C[C@@H]2OC (some centres unmarked) [Example 63] | 15
23 | CC[C@@H]1/C=C(\C)C[C@H](C)C[C@H](OC)[C@H]2O[C@@](O)(C(=O)C(=O)N3CCCC[C@H]3C(=O)O[C@H](/C(C)=C/[C@@H]3CC[C@H](SC(=O)CNC(C)=O)[C@H](OC)C3)[C@H](C)[C@@H](O)CC1=O)[C@H](C)C[C@@H]2OC [Example 115] | 0.02
24 | CC[C@@H]1/C=C(\C)C[C@H](C)C[C@H](OC)[C@H]2O[C@@](O)(C(=O)C(=O)N3CCCC[C@H]3C(=O)O[C@H](/C(C)=C/[C@@H]3CC[C@H](SC(=O)c4ccccc4NC(C)=O)[C@H](OC)C3)[C@H](C)[C@@H](O)CC1=O)[C@H](C)C[C@@H]2OC [Example 118] | 2.5
25 | CC[C@@H]1/C=C(\C)C[C@H](C)C[C@H](OC)[C@H]2O[C@@](O)(C(=O)C(=O)N3CCCC[C@H]3C(=O)O[C@H](/C(C)=C/[C@@H]3CC[C@H](SC(=O)c4ccccc4OC(C)=O)[C@H](OC)C3)[C@H](C)[C@@H](O)CC1=O)[C@H](C)C[C@@H]2OC [Example 112] | 0.49
26 | CCC1C=C(C)CC(C)CC(OC)C2OC(O)(C(=O)C(=O)N3CCCCC3C(=O)OC(C(C)=CC3CCC(SCC(=O)OCCOC)C(OC)C3)C(C)C(O)CC1=O)C(C)CC2OC (centres unmarked) [Example 35] | 27.1
27 | CC[C@@H]1/C=C(\C)C[C@H](C)C[C@H](OC)[C@H]2O[C@@](O)(C(=O)C(=O)N3CCCC[C@H]3C(=O)O[C@H](/C(C)=C/[C@@H]3CC[C@H](SC(=O)N(C)C)[C@H](OC)C3)[C@H](C)[C@@H](O)CC1=O)[C@H](C)C[C@@H]2OC [Example 96] | 0.1
28 | CC[C@@H]1/C=C(\C)C[C@H](C)C[C@H](OC)[C@H]2O[C@@](O)(C(=O)C(=O)N3CCCC[C@H]3C(=O)O[C@H](/C(C)=C/[C@@H]3CC[C@H](SCC(C)=NO)[C@H](OC)C3)[C@H](C)[C@@H](O)CC1=O)[C@H](C)C[C@@H]2OC [Example 83A] | 70
29 | CCC1C=C(C)CC(C)CC(OC)C2OC(O)(C(=O)C(=O)N3CCCCC3C(=O)OC(C(C)=CC3CCC(SCCC(=O)OC(C)C)C(OC)C3)C(C)C(O)CC1=O)C(C)CC2OC (centres unmarked) [Example 20] | 12.7
30 | CCC1C=C(C)CC(C)CC(OC)C2OC(O)(C(=O)C(=O)N3CCCCC3C(=O)OC(C(C)=CC3CCC(SCCC(=O)O)C(OC)C3)C(C)C(O)CC1=O)C(C)CC2OC (centres unmarked) [Example 19] | 2.9

same assay, conditions: serum-free medium AIM V, Table 3

Row | SMILES | IC50 [nM]
31 | CC[C@@H]1/C=C(\C)C[C@H](C)C[C@H](OC)[C@H]2O[C@@](O)(C(=O)C(=O)N3CCCC[C@H]3C(=O)O[C@H](/C(C)=C/[C@@H]3CC[C@H](SC(=O)C(C)NC(C)=O)[C@H](OC)C3)[C@H](C)[C@@H](O)CC1=O)[C@H](C)C[C@@H]2OC (single isomer, unassigned) [Example 117B] | 2.5

system: human mixed lymphocyte reaction (MLR); assay: human mixed lymphocyte reaction (MLR) assay, immunosuppressant activity; assay type: cell-based; conditions: Homo sapiens, Lymphocyte, Table 2
Procedure: The immunosuppressant activity of the compounds of the present invention was determined using the human mixed lymphocyte reaction (MLR) assay described by Kino, T. et al. in Transplantation Proceedings, XIX(5):36-39,Suppl. 6 (1987).

Row | SMILES | IC50 [nM]
32 | CC[C@@H]1/C=C(\C)C[C@H](C)C[C@H](OC)[C@H]2O[C@@](O)(C(=O)C(=O)N3CCCC[C@H]3C(=O)O[C@H](/C(C)=C/[C@@H]3CC[C@H]([S+]([O-])c4ccccc4)[C@H](OC)C3)[C@H](C)[C@@H](O)CC1=O)[C@H](C)C[C@@H]2OC (single isomer, unassigned) [Example 133A] | 6.2
